The results in this text go back to paper PMC11725127 (Acta Pharmaceutica Sinica. B, 2024).

In test [1] the target is ubiquitin-specific protease 2 (USP2) (Homo sapiens, UniProt O75604). The experiment in a line: LC-MS/MS covalent adduct on recombinant USP2. In kind it is biochemical.
Test [2] has as its target ubiquitin-specific protease 2 (USP2) (Homo sapiens, UniProt O75604, C284S). The experiment in a line: thermal stability shift. In kind it is cell-based.
In another test the target is USP7 (Homo sapiens, UniProt Q93009). Kind of test: in vitro gel-based GST-UBA52 cleavage assay. It counts as biochemical.

For orientation: IC50 means the concentration that gives 50% inhibition.

Chain of USP7 (Q93009 whole entry): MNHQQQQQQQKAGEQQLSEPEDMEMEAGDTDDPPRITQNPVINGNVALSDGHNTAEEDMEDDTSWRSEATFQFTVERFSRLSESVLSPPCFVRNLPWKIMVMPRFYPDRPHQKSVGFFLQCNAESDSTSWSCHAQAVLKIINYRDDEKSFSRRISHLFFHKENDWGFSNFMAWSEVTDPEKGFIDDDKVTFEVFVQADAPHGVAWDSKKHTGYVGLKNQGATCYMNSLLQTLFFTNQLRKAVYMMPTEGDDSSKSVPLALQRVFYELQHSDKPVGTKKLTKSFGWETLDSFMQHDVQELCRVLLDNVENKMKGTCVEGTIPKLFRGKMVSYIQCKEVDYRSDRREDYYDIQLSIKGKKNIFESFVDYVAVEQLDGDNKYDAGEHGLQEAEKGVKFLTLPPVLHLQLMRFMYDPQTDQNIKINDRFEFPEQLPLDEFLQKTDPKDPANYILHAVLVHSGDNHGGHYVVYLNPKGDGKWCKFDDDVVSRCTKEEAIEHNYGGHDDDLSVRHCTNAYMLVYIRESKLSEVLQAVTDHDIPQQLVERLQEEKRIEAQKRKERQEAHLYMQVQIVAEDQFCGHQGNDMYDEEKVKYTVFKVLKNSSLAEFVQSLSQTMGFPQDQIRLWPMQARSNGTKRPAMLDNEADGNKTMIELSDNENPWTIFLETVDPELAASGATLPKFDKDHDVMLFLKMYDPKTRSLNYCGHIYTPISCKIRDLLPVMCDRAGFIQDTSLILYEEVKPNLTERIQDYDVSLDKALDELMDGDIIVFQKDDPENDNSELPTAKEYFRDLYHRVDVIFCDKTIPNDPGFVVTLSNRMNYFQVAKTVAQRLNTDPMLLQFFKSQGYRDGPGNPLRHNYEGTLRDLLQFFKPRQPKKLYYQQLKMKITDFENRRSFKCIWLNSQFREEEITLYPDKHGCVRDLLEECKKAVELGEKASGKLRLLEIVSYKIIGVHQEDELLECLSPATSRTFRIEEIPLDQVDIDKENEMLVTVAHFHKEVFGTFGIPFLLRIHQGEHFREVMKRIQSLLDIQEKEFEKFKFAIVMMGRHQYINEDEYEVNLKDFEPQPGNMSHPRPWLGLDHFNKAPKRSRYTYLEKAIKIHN
Chain of ubiquitin-specific protease 2 (USP2) (Homo sapiens, UniProt O75604) (O75604 259-605): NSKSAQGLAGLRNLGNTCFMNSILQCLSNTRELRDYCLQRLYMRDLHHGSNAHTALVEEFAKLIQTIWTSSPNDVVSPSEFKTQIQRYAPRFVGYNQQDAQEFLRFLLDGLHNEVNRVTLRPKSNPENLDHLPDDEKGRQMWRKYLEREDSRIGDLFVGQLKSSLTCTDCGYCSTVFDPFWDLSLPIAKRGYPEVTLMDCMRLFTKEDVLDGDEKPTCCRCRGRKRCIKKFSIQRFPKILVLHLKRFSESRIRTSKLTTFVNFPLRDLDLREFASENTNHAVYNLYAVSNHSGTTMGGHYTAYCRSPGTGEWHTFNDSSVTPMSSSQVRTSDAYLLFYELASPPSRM
Chain of ubiquitin-specific protease 2 (USP2) (Homo sapiens, UniProt O75604, C284S) (O75604 whole entry C284S): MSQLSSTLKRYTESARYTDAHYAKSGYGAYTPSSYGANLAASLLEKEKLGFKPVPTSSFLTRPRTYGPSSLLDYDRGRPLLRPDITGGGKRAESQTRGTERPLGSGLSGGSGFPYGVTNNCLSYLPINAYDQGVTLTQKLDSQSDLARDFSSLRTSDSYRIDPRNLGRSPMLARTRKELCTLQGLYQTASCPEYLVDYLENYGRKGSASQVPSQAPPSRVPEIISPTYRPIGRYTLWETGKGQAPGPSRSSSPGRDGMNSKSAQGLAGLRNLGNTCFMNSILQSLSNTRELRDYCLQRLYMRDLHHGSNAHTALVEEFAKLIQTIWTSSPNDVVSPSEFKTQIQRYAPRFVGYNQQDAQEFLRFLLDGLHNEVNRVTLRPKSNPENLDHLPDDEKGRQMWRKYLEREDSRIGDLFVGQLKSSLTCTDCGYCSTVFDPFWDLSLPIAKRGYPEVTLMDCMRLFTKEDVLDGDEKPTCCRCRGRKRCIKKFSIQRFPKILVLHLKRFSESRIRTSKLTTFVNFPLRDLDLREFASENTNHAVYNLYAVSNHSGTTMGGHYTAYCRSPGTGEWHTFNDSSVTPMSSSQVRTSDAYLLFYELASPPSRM

Turning to `CC(C)=CCC[C@]1(C)C=Cc2c(O)c3c(c(CC=C(C)C)c2O1)O[C@]12C(=C[C@@H]4C[C@H]1C(C)(C)O[C@@]2(C/C=C(/C)C(=O)O)C4=O)C3=O` [GA, gambogic acid], the concentration for half-maximal inhibition (IC50) in test [1] turned out to be 1.8 µM; on USP7 it was 17 µM. The “thermal stability shift (Fig. S15)” value in test [2] was “the thermal stability of USP2^Cys284S could also be altered by GA”.
